Active and inactive are the calls of the source. No cut-off for these calls is given here.
How the values were obtained:
MCF7 [1] = test: Inhibition of RhoGEF in human MCF7 cells derived mammospheres assessed as inhibition of 10% calf serum-induced RhoA-GTP formation by measuring relative RhoA-GTP level at 5 uM in presence of 5 uM Rhosin/G04 incubated for 24 hrs by densitometry (reference value: 1); type: cell-based
Mus musculus [2] = species on record: Mus musculus; test: Inhibition of RhoGEF in mouse NIH/3T3 cells assessed as reduction in 10% calf serum-induced rhoA-mediated actin stress fiber formation at 2.5 uM in presence of 2.5 uM Rhosin/G04 by rhodamine-phalloidin staining based assay; type: cell-based
[3] = test system: Rho-associated protein kinase 2 (Homo sapiens), O75116 [UNDEFINED MUTATION]; test: Inhibition of constitutively active ROCK2 mutant (unknown origin) expressed in mouse NIH/3T3 cells assessed as reduction in 10% calf serum-induced actin stress fiber formation at 30 uM by rhodamine-phalloidin staining based assay; type: cell-based
Chain of Rho-associated protein kinase 2 (Homo sapiens), O75116 [UNDEFINED MUTATION] (O75116 whole entry, looked up, change not shown, the tested form may be a part): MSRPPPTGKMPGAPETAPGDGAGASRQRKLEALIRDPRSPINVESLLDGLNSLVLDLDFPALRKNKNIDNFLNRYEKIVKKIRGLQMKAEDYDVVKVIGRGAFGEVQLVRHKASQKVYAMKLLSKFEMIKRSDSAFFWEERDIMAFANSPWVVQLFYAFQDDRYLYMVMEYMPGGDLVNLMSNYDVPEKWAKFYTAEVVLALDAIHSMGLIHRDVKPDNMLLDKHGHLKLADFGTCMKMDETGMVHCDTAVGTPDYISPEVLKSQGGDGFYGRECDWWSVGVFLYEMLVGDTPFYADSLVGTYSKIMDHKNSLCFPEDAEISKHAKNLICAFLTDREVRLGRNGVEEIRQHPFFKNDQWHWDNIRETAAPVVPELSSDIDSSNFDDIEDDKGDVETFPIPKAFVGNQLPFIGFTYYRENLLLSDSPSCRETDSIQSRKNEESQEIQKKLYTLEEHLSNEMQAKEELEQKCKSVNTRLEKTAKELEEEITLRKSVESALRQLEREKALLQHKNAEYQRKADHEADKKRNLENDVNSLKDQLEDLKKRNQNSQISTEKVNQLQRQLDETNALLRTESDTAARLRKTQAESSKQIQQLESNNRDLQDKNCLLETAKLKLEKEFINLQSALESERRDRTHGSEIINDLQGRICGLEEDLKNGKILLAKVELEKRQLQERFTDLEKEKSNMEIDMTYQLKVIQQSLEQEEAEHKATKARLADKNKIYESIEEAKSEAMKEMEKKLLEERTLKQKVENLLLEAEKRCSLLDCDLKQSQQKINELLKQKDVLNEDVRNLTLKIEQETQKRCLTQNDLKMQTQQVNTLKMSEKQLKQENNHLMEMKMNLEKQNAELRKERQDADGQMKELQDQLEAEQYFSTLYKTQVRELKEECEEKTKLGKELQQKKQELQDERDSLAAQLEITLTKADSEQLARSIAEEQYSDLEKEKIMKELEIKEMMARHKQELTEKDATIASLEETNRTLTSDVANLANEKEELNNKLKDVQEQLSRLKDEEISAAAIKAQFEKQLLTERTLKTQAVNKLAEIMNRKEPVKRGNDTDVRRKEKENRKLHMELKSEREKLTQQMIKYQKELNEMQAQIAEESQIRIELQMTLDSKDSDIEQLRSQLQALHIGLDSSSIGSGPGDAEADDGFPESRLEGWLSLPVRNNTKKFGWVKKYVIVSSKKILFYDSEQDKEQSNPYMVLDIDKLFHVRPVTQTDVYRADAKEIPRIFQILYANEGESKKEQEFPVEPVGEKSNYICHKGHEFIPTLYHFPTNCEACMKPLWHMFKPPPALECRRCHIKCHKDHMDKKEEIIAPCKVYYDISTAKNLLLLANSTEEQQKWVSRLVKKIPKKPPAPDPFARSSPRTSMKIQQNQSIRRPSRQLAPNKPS

[4] = target: T1, Rho guanine nucleotide exchange factor 12 (Homo sapiens, UniProt Q9NZN5); test: Binding affinity to recombinant human LARG (765 to 1138 residues) containing DH-PH catalytic module by microscale thermophoresis analysis
T1 sequence (Q9NZN5 whole entry, the tested form may be a part): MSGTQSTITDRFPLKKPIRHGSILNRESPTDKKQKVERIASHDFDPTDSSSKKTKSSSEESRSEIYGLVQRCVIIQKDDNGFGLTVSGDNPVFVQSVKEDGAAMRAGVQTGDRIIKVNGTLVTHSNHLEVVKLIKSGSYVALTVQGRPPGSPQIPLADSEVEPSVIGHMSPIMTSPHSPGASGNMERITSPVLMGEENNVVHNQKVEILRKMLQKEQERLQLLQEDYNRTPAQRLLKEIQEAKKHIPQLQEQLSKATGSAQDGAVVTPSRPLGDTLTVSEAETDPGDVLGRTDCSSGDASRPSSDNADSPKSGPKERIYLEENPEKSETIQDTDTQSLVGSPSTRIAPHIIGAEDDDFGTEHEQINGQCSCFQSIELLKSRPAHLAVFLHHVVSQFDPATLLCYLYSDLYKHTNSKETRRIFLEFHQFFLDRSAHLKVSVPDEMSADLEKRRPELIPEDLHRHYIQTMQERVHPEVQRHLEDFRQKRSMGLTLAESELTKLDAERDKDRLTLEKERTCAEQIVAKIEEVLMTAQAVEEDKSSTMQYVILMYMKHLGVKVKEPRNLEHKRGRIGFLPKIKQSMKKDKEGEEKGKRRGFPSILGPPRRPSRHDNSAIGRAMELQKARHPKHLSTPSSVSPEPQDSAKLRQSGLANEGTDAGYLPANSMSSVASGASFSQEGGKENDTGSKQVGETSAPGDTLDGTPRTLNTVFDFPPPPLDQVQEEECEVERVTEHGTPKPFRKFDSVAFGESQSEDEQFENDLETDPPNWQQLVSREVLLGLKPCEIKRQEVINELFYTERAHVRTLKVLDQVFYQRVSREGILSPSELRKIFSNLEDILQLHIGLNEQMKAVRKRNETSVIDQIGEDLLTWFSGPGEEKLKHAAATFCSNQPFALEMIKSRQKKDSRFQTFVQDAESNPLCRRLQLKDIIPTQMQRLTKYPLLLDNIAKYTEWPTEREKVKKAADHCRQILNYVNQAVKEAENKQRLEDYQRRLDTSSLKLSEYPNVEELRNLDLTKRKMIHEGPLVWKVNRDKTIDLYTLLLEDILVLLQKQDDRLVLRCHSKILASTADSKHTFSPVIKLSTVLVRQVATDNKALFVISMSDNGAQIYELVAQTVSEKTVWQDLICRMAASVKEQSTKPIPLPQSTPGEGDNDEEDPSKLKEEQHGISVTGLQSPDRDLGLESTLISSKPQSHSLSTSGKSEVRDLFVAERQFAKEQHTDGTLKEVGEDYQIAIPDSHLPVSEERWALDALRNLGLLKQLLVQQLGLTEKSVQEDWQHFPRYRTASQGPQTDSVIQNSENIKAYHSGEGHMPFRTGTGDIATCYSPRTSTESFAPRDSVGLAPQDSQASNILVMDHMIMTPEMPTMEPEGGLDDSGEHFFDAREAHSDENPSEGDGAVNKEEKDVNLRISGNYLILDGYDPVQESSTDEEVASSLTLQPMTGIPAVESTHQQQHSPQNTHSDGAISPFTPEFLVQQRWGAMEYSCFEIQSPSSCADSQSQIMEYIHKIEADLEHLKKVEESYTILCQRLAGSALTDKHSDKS

[5] = target: T2, RhoGEF 1/Transforming protein RhoA (Homo sapiens) (UniProt P61586+Q92888); test: Binding affinity to human LARG (765 to 1138 residues) DH-PH module expressed in mouse NIH/3T3 cells assessed as reduction in LARG binding to human full length RhoA (1 to 193 residues) by measuring relative LARG binding level at 5 uM pull-down assay (reference value: 1 No unit); type: cell-based
[6] = target: Rho-associated protein kinase 2/Transforming protein RhoA (Homo sapiens) (UniProt O75116+P61586); test: Inhibition of human ROCK2 expressed in mouse NIH/3T3 cells assessed as reduction in human full length RhoA (1 to 193 residues) interaction with ROCK2 at 50 to 200 uM incubated for 1 hr by Western blot analysis based His-RhoA pull-down assay; type: cell-based
Chain of Rho-associated protein kinase 2/Transforming protein RhoA (Homo sapiens) (O75116 whole entry, looked up, the tested form may be a part): as the sequence (O75116 whole entry, looked up, change not shown, the tested form may be a part) above
Chain of Rho-associated protein kinase 2/Transforming protein RhoA (Homo sapiens) (P61586 whole entry, looked up, the tested form may be a part): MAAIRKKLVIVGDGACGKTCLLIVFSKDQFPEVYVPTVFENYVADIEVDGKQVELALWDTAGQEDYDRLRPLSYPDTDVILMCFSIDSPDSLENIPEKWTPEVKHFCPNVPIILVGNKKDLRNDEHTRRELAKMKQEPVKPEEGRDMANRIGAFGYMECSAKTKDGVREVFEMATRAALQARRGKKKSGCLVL

[7] = target: T1, Rho guanine nucleotide exchange factor 12; test: Inhibition of human LARG (765 to 1138 residues) RhoGEF binding to human full length RhoA (1 to 193 residues)
Mus musculus [8] = species on record: Mus musculus; test: Inhibition of RhoGEF in mouse NIH/3T3 cells assessed as inhibition of 10% calf serum-induced RhoA-GTP formation by measuring relative RhoA-GTP level at 50 uM incubated for 24 hrs by densitometry (reference value: 1); type: cell-based
MCF7 [9] = test: Inhibition of RhoGEF in human MCF7 cells derived mammospheres assessed as inhibition of 10% calf serum-induced RhoA-GTP formation by measuring relative RhoA-GTP level at 5 uM incubated for 24 hrs by densitometry (reference value: 1); type: cell-based
MCF7 [10] = test: Inhibition of RhoGEF in human MCF7 cells derived mammospheres assessed as inhibition of 10% calf serum-induced RhoA-GTP formation at 10 uM incubated for 24 hrs by densitometry relative to control; type: cell-based
[11] = target: T2, RhoGEF 1/Transforming protein RhoA (Homo sapiens); test: Inhibition of GFP-tagged human p115 RhoGEF DH-PH module expressed in mouse NIH/3T3 cells assessed as reduction in human full length RhoA (1 to 193 residues) interaction with p115 RhoGEF at 30 to 50 uM incubated for 1 hr by Western blot analysis based GST-RhoA pull-down assay; type: cell-based
MCF7 [12] = test: Inhibition of RhoGEF in human MCF7 cells derived mammospheres assessed as inhibition of RhoA-mediated phospho-MLC formation at 2.5 uM in presence of 2.5 uM Rhosin/G04 incubated for 24 hrs by densitometry; type: cell-based
Mus musculus [13] = species on record: Mus musculus; test: Inhibition of RhoGEF in mouse NIH/3T3 cells assessed as inhibition of 10% calf serum-induced RhoA-GTP formation by measuring RhoA-GTP level at 10 uM incubated for 24 hrs by densitometry relative to control (reference value: 2.15); type: cell-based
Mus musculus [14] = species on record: Mus musculus; test: Inhibition of RhoGEF-mediated RhoA signaling in mouse NIH/3T3 cells assessed as inhibition of SDF1a-induced phospho-MLC formation at 10 to 30 uM incubated for 24 hrs by densitometry; type: cell-based
[15] = target: T2, RhoGEF 1/Transforming protein RhoA (Homo sapiens); test: Binding affinity to human LARG (765 to 1138 residues) DH-PH module expressed in mouse NIH/3T3 cells assessed as reduction in LARG binding to human full length RhoA (1 to 193 residues) by measuring relative LARG binding level at 50 uM pull-down assay (reference value: 1 No unit); type: cell-based
Mus musculus [16] = species on record: Mus musculus; test: Inhibition of RhoGEF in mouse NIH/3T3 cells assessed as inhibition of 10% calf serum-induced RhoA-GTP formation by measuring relative RhoA-GTP level at 2.5 uM in presence of 2.5 uM Rhosin/G04 incubated for 24 hrs by densitometry (reference value: 1); type: cell-based
[17] = test system: Transforming protein RhoA (Homo sapiens), P61586 [Q63L]; test: Inhibition of constitutively active RhoA Q63L mutant (unknown origin) expressed in mouse NIH/3T3 cells assessed as reduction in 10% calf serum-induced focal adhesion complex formation at 50 uM by anti-vinculin antibody staining based assay; type: cell-based
Chain of Transforming protein RhoA (Homo sapiens), P61586 [Q63L] (P61586 whole entry Q63L, the tested form may be a part): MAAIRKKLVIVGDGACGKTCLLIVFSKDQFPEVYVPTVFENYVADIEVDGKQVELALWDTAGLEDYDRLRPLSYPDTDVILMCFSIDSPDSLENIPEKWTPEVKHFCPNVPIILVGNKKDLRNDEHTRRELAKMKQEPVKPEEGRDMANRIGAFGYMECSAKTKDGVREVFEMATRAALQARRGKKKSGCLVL

[18] = target: Rho guanine nucleotide exchange factor 12 (Homo sapiens, UniProt Q9NZN5, N983A); test: Binding affinity to recombinant human LARG (765 to 1138 residues) N983A mutant by microscale thermophoresis analysis
[19] = target: Serine/threonine-protein kinase N1/Transforming protein RhoA (Homo sapiens) (UniProt Q16512+P61586); test: Inhibition of human PKN1 expressed in mouse NIH/3T3 cells assessed as reduction in human full length RhoA (1 to 193 residues) interaction with PKN1 at 50 to 200 uM incubated for 1 hr by Western blot analysis based His-RhoA pull-down assay; type: cell-based
Chain of Serine/threonine-protein kinase N1/Transforming protein RhoA (Homo sapiens) (P61586 whole entry, looked up, the tested form may be a part): as the sequence (P61586 whole entry, looked up, the tested form may be a part) above
Chain of Serine/threonine-protein kinase N1/Transforming protein RhoA (Homo sapiens) (Q16512 whole entry, looked up, the tested form may be a part): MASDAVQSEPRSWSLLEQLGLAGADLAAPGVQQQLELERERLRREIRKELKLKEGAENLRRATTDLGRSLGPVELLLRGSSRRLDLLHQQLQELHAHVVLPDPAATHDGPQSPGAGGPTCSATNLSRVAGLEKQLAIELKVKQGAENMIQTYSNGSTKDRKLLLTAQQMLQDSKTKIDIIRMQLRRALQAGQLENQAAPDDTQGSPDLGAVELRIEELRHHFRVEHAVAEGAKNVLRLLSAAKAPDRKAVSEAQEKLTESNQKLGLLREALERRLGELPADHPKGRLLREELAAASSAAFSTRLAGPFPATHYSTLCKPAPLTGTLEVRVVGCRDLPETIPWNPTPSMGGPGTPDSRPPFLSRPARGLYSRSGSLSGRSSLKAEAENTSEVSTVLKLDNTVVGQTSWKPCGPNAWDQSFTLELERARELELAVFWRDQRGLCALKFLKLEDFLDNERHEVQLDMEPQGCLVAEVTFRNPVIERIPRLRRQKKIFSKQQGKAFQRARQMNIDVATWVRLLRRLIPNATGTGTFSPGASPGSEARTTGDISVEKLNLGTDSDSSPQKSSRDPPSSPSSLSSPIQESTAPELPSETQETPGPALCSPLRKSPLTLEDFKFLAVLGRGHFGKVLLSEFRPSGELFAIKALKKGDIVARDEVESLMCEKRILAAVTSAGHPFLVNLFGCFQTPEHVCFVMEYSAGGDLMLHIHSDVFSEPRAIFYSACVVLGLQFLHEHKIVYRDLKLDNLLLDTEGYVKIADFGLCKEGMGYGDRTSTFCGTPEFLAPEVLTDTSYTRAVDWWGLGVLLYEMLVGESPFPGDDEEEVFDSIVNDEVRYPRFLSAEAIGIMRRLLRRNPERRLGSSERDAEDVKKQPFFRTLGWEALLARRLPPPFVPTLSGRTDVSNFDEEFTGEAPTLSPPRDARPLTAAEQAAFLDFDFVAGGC

[20] = target: Protein diaphanous homolog 1/Transforming protein RhoA (Homo sapiens) (UniProt P61586+O60610); test: Inhibition of human mDia1 expressed in mouse NIH/3T3 cells assessed as reduction in human full length RhoA (1 to 193 residues) interaction with mDia1 at 50 to 100 uM incubated for 1 hr by Western blot analysis based His-RhoA pull-down assay; type: cell-based
MCF7 [21] = test: Inhibition of mammospheres formation in human MCF7 cells incubated for 10 days; type: functional, cell-based
Mus musculus [22] = species on record: Mus musculus; test: Inhibition of RhoGEF-mediated RhoA signaling in mouse NIH/3T3 cells assessed as inhibition of serum -induced phospho-MLC formation at 10 to 30 uM incubated for 24 hrs by densitometry; type: cell-based
Mus musculus [23] = species on record: Mus musculus; test: Inhibition of RhoGEF in mouse NIH/3T3 cells assessed as inhibition of 10% calf serum-induced Rac1-GTP formation by measuring relative Rac1-GTP level at 50 uM incubated for 24 hrs by densitometry (reference value: 1); type: cell-based
Mus musculus [24] = species on record: Mus musculus; test: Inhibition of RhoGEF in mouse NIH/3T3 cells assessed as inhibition of 10% calf serum-induced Cdc42-GTP formation by measuring Cdc42-GTP level at 10 uM incubated for 24 hrs by densitometry relative to control (reference value: 3.25); type: cell-based

inhibition [3]: inactive
Kd [4]: 0.065 to 0.076 µM
fold change (FC) [5]: 0.73
inhibition [6]: inactive
IC50 [7]: 5 µM
inhibition [11]: Active
fold change (FC) [15]: 0.19
inhibition [17]: inactive
Kd [18]: > 500 µM
inhibition [19]: inactive
inhibition [20]: inactive
Compound: Cc1cccc(COc2cccc(/C=C3\C(=O)NN(c4ccccc4)C3=O)c2)c1
fold change (FC) (MCF7 [1]): 0.11
inhibition (Mus musculus [2]): Active
fold change (FC) (Mus musculus [8]): 0.26
fold change (FC) (MCF7 [9]): 0.77
inhibition (MCF7 [10]): 50%
inhibition (MCF7 [12]): 70%
fold change (FC) (Mus musculus [13]): 1.09
inhibition (Mus musculus [14]): Active
fold change (FC) (Mus musculus [16]): 1.26
inhibition (MCF7 [21]): Dose-dependent effect
inhibition (Mus musculus [22]): Active
fold change (FC) (Mus musculus [23]): 0.93
fold change (FC) (Mus musculus [24]): 2.23

— ChEMBL document CHEMBL4419173, “Small-molecule inhibitors targeting g-protein-coupled rho guanine nucleotide exchange factors” (2014)
